We go through one compound from ChEMBL document CHEMBL5715956, “Selective Targeting of Bromodomains of the Bromodomain-PHD Fingers Family Impairs Osteoclast Differentiation” (ACS Chem Biol, 2017).

In assay [1] the target is 5-hydroxytryptamine receptor 7 (Homo sapiens) (UniProt P34969). The assay is described as follows: Inhibition of 5HT7 (unknown origin) at 10 uM relative to control.
Assay [2] concerns the target Bromodomain-containing protein 2 (Homo sapiens) (UniProt P25440). The note with it: dose 10.0 µM.
In assay [3] the target is ATPase family AAA domain-containing protein 2B (Homo sapiens) (UniProt Q9ULI0). The following applies: dose 10.0 µM.
Assay [4] concerns the target Bromodomain and WD repeat-containing protein 1 (Homo sapiens) (UniProt Q9NSI6). The following applies: dose 10.0 µM.
Assay [5] has as its target Protein polybromo-1 (Homo sapiens) (UniProt Q86U86). The following applies: dose 10.0 µM.
Assay [6] addresses Bromodomain and PHD finger-containing protein 3 (Homo sapiens, UniProt Q9ULD4). The assay is described as follows: Inhibition of BRPF3 (unknown origin) incubated for 60 mins by alphascreen competitive assay. Background: Bead proximity is the source of the signal in Alpha formats.
The target of assay [7] is Transcription initiation factor TFIID subunit 1-like (Homo sapiens) (UniProt Q8IZX4). The note with it: dose 10.0 µM.
Assay [8] deals with T1, Bromodomain and PHD finger-containing protein 3 (Homo sapiens) (UniProt Q9ULD4).
T1 sequence (whole entry): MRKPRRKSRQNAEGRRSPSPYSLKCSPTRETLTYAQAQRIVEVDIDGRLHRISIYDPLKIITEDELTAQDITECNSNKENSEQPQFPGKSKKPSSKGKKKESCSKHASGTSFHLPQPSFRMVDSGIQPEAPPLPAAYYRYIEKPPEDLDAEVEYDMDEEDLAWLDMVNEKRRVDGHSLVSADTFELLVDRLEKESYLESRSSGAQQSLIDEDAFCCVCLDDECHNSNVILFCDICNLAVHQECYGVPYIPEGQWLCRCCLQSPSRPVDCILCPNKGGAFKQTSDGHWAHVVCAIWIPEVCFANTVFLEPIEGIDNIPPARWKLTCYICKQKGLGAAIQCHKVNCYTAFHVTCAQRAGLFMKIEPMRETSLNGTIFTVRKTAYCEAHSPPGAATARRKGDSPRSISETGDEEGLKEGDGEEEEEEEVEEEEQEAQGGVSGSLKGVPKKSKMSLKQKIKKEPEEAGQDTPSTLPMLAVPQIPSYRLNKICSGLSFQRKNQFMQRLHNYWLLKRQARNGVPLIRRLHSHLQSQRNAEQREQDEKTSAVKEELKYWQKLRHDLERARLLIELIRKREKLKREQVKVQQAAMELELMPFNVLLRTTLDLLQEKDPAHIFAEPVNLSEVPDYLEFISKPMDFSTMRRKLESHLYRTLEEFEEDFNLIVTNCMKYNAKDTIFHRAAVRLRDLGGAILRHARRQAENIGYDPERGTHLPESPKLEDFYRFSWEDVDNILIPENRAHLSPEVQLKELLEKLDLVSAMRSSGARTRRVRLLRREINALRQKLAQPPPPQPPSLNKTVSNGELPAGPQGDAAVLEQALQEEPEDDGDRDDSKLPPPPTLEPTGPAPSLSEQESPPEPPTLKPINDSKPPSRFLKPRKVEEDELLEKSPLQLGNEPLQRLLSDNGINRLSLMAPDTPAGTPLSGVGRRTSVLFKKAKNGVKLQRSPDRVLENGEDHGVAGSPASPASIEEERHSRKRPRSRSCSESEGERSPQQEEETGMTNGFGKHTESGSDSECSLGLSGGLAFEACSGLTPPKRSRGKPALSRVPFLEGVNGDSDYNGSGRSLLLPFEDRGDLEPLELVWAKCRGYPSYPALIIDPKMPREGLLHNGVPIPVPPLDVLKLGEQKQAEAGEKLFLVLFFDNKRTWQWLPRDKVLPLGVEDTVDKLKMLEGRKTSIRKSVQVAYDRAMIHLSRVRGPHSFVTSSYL
The assay is described as follows: Binding affinity to BRPF3 (unknown origin) assessed as change in entropy TdeltaS at 12 uM by Isothermal titration calorimetry. On the technique in general: In ITC the heat of successive injections is recorded.

In assay [9] the target is Protein polybromo-1 (Homo sapiens) (UniProt Q86U86). The note with it: dose 10.0 µM. The source holds these as a separate data set.
Assay [10] deals with Transcription initiation factor TFIID subunit 1 (Homo sapiens) (UniProt P21675). The note with it: dose 10.0 µM.
A further assay is filed under the species Homo sapiens. The assay is described as follows: Binding affinity to Cl channel GABA gated receptor (unknown origin) assessed as specific binding at 10 uM relative to control.
For assay [11], the target named is Histone-lysine N-methyltransferase ASH1L (Homo sapiens) (UniProt Q9NR48). The following applies: dose 10.0 µM.
Assay [12] addresses Transcription intermediary factor 1-alpha (Homo sapiens) (UniProt O15164). The note with it: dose 10.0 µM.
Assay [13] addresses 5-hydroxytryptamine receptor 5A (Homo sapiens) (UniProt P47898). The assay is described as follows: Inhibition of 5HT5A (unknown origin) at 10 uM relative to control.

Chain of Protein polybromo-1 (Homo sapiens) (Q86U86 whole entry): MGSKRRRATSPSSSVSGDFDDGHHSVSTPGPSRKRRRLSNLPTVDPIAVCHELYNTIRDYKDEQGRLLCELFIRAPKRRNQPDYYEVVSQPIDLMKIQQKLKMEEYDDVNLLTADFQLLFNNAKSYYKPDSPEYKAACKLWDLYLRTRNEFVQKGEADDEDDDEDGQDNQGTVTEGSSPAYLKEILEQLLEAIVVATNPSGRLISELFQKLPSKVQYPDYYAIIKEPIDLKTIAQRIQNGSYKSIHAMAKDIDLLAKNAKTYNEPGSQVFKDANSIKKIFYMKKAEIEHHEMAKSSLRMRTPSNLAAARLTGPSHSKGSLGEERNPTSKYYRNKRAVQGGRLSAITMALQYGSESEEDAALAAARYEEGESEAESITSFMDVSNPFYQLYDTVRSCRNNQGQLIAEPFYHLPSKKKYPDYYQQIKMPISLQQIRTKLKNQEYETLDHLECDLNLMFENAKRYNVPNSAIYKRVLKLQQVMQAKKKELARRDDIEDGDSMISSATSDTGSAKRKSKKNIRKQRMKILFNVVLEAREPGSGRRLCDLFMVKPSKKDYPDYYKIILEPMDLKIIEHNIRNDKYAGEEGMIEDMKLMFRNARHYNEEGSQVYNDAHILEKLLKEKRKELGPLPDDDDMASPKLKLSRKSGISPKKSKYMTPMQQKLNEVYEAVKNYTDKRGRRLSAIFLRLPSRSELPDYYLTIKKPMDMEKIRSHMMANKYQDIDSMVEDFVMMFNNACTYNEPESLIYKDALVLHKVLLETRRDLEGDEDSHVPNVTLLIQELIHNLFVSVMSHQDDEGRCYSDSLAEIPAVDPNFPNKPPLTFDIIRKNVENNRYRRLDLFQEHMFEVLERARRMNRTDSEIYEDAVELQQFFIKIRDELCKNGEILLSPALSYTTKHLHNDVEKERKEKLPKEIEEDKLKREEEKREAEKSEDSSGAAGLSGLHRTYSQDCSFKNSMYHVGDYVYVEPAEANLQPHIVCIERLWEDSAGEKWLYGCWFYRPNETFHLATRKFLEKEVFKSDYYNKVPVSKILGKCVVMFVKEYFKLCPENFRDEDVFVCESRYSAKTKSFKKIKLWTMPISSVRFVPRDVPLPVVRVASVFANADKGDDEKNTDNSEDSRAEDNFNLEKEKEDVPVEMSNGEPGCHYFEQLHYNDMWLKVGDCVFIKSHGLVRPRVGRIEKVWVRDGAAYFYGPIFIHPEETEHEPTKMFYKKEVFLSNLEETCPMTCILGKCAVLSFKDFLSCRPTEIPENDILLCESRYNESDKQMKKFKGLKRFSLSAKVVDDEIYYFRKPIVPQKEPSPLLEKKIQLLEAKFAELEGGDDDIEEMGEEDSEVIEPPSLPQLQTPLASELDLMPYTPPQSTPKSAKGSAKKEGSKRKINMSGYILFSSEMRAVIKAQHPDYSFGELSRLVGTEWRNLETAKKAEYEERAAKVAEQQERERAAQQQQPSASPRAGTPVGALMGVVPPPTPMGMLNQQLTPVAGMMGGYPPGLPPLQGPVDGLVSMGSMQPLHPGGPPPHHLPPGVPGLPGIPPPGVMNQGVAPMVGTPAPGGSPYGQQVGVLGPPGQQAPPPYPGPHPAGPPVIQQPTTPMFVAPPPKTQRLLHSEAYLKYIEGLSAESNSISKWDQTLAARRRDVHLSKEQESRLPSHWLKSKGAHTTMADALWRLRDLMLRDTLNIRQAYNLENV
Chain of 5-hydroxytryptamine receptor 7 (Homo sapiens) (P34969 whole entry): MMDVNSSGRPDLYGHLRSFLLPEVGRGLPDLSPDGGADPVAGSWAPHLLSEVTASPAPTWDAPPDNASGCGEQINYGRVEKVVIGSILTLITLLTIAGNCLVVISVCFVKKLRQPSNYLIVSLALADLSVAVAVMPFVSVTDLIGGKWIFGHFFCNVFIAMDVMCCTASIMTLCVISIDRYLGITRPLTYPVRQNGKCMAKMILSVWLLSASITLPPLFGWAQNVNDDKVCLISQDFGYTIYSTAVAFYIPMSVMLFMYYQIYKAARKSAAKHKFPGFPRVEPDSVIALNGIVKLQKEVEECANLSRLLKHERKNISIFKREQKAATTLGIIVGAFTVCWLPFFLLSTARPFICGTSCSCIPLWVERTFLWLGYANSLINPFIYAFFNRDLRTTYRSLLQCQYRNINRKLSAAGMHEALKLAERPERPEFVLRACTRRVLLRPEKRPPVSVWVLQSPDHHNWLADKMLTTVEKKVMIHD
Chain of Transcription intermediary factor 1-alpha (Homo sapiens) (O15164 whole entry): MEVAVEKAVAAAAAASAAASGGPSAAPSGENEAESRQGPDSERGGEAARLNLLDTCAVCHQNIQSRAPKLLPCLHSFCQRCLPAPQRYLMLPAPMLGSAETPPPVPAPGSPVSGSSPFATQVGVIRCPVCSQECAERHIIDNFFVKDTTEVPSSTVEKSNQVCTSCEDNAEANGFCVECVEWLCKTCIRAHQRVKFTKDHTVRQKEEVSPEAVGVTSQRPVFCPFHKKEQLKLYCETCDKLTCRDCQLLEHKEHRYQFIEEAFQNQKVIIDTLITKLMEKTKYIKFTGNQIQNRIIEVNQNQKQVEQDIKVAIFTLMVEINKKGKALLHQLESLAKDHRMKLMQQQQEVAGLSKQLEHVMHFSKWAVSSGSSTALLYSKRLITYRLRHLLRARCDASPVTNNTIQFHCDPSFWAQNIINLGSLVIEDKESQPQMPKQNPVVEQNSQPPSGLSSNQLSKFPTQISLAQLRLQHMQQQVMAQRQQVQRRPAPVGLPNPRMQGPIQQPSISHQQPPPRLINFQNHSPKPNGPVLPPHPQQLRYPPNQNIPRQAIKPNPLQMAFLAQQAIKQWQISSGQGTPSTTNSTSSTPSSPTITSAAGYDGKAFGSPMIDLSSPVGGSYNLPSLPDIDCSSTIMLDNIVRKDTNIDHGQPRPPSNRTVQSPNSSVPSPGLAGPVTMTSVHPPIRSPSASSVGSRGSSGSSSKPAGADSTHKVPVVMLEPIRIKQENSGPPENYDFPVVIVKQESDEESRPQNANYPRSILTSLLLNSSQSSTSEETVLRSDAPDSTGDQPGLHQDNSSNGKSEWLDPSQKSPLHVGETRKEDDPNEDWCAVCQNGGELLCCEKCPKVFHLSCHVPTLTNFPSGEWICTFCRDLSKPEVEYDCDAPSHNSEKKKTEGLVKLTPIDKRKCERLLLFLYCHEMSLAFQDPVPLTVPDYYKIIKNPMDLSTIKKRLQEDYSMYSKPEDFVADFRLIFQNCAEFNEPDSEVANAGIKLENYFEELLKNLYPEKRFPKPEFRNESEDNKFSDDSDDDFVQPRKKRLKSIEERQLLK
Chain of ATPase family AAA domain-containing protein 2B (Homo sapiens) (Q9ULI0 whole entry, the tested form may be a part): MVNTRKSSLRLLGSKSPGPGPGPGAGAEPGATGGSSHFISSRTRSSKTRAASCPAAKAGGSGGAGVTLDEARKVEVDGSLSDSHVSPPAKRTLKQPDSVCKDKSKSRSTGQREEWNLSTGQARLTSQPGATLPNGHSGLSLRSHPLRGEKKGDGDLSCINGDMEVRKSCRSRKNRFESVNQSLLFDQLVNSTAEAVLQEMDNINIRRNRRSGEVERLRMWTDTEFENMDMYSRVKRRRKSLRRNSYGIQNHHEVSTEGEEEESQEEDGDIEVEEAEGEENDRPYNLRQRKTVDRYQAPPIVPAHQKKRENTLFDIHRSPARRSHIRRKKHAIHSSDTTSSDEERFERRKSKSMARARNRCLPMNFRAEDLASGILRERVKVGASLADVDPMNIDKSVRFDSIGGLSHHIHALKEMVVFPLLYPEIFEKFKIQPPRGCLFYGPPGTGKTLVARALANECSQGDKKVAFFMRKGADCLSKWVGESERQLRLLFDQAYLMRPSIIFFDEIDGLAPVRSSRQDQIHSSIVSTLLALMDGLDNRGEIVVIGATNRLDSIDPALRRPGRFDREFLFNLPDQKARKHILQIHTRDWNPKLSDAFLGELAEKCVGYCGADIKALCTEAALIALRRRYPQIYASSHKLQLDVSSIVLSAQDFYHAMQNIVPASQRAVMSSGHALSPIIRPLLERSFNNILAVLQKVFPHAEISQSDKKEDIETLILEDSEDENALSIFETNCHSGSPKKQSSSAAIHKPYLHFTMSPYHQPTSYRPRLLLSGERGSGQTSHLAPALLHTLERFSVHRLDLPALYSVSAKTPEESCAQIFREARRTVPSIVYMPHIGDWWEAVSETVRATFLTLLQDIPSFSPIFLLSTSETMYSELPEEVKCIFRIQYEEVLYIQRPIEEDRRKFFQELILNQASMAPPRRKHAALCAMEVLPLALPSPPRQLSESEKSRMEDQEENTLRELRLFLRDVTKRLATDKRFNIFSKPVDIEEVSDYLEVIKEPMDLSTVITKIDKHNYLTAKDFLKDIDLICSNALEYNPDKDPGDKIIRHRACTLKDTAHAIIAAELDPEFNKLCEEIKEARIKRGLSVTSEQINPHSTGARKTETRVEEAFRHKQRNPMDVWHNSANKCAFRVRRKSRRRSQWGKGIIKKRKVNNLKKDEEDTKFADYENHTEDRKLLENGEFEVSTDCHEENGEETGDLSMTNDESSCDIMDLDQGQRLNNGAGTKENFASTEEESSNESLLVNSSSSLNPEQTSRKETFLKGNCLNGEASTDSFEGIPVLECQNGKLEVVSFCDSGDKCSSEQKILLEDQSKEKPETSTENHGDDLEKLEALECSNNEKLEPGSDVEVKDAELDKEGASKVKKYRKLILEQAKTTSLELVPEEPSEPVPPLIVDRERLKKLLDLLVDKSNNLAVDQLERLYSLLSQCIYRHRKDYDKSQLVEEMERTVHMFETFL
Chain of 5-hydroxytryptamine receptor 5A (Homo sapiens) (P47898 whole entry): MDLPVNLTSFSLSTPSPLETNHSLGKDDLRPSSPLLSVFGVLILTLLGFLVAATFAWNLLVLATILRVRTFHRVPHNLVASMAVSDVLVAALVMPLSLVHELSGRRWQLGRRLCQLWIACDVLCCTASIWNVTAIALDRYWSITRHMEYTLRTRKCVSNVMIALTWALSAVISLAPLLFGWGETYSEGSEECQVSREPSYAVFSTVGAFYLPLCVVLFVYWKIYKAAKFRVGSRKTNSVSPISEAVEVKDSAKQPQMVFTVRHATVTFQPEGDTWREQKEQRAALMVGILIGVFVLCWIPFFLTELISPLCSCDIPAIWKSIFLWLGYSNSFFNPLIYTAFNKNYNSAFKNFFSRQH

The term inhibition denotes the change of the read-out against control, counted positive when it falls. A lower inhibition goes with a weak effect. One may read the ΔTm as the shift of the melting midpoint relative to a reference. For the compound `COc1cc2c(cc1NS(=O)(=O)c1ccc(Br)cc1C)n(C)c(=O)n2C`, the inhibition in [1] came out at 2%; in assay [13], 22%. Besides, the thermal shift (ΔTm) in [2] was 0.7 °C; in assay [3] it was -0.3 °C; in assay [4], 1 °C; in assay [5], 0.2 °C; in assay [7], 0.3 °C; in [9], 0.8 °C. Further, the ΔTm in [10] worked out at 0.2 °C; in [11] it was 0.3 °C; in assay [12], 1.6 °C. In addition, the IC50 entry in assay [6] was “Not Active”. Further, the TdeltaS in assay [8] worked out at 0.427 kcal/mol. Besides, the Activity in the assay filed under Homo sapiens turned out to be 95.3%.
